Data as given in ChEMBL document CHEMBL5500412, “Discovery of Highly Selective, Potent, Covalent, and Orally Bioavailable Factor XIIa Inhibitors for the Treatment of Thrombo-Inflammation” (J Med Chem, 2024).
The source made the active and inactive calls. No cut-off for these calls is given here.

What was measured:
[1] = molecular target: T1, Coagulation factor XII (Homo sapiens) (UniProt P00748); assay: Inhibition of FXIIa (unknown origin) using H-D-Pro-Phe-Arg-pNA as substrate at 500 nM incubated for 20 mins followed by substrate addition by spectrophotometric analysis relative to control
T1 sequence (whole entry): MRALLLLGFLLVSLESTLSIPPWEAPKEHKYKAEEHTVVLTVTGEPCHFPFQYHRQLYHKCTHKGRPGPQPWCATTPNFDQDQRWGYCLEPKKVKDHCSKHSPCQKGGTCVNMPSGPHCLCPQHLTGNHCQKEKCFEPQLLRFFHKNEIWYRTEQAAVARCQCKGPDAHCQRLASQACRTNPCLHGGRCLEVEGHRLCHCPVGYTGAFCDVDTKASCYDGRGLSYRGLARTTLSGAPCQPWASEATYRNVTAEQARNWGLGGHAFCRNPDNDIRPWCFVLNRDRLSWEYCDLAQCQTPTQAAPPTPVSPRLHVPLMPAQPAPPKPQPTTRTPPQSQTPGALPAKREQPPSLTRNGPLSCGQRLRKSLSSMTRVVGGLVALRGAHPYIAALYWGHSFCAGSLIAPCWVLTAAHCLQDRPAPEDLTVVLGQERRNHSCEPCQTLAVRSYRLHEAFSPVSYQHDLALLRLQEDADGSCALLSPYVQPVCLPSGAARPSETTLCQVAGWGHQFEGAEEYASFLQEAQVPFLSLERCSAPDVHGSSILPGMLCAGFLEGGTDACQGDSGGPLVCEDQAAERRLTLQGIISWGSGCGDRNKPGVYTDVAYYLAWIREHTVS

Coagulation factor XII [2] = molecular target: T2, Coagulation factor XII (Homo sapiens, UniProt P00748); assay: Inhibition of FXIIa (unknown origin) using H-D-Pro-Phe-Arg-pNA as substrate incubated for 20 mins followed by substrate addition by spectrophotometric analysis
T2 sequence (P00748 whole entry): T1 sequence (whole entry)

Prothrombin = Prothrombin (Homo sapiens, UniProt P00734); assay: Inhibition of thrombin (unknown origin) using H-D-Phe-Pip-Arg-pNA-2HCl as substrate incubated for 20 mins followed by substrate addition by spectrophotometric analysis
Plasminogen = Plasminogen (Homo sapiens, UniProt P00747); assay: Inhibition of plasmin (unknown origin) using PyroGlu-Phe-Lys-pNA.HCl as chromogenic substrate incubated for 20 mins followed by substrate addition by spectrophotometric analysis
Plasminogen, sequence (P00747 97-580 limits assumed): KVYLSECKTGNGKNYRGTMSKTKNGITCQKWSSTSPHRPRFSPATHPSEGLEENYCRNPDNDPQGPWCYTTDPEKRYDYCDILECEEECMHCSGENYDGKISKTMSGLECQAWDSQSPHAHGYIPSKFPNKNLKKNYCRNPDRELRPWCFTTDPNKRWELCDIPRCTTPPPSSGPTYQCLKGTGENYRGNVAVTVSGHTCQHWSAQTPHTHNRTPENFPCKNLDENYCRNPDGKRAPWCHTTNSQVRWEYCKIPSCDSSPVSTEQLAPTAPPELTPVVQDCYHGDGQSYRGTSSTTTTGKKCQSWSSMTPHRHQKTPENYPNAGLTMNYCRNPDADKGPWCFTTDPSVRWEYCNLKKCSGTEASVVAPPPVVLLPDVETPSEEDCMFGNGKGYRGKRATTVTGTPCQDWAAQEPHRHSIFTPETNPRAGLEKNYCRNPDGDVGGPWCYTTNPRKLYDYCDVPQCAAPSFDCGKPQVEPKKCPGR
Plasminogen, sequence (P00747 581-810 limits assumed): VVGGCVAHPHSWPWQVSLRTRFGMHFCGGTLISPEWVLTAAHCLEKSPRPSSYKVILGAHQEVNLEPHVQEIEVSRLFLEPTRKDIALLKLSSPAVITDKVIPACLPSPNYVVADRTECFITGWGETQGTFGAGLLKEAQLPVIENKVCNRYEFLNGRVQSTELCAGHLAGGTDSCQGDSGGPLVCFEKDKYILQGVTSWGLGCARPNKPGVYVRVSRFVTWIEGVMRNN

[3] = Selectivity index, ratio of IC50 for plasmin (unknown origin) to IC50 for FXIIa (unknown origin)
Plasma [4] = assay: Anticoagulant activity in human plasma assessed as prolongation of […] time at 300 uM incubated for 2 mins by PT reagent based assay; format: functional, cell-free
Coagulation factor X = Coagulation factor X (Homo sapiens, UniProt P00742); assay: Inhibition of FXa (unknown origin) using Z-D-Arg-Gly-Arg-pNA.2HCl as chromogenic substrate incubated for 20 mins followed by substrate addition by spectrophotometric analysis
Coagulation factor X, sequence (P00742 41-179 limits assumed): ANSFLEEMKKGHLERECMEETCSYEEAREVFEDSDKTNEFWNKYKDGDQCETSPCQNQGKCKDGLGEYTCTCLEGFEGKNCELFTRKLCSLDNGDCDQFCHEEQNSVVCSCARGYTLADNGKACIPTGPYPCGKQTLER
Coagulation factor X, sequence (P00742 235-488 limits assumed): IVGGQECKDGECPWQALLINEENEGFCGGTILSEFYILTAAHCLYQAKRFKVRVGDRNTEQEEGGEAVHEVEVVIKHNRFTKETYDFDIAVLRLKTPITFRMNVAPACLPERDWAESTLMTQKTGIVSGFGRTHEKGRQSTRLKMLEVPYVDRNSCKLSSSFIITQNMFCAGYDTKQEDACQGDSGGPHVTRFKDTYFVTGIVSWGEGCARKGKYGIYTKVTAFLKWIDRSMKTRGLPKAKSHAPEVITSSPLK

[5] = molecular target: Tissue-type plasminogen activator (Homo sapiens, UniProt P00750); assay: Inhibition of tPA (unknown origin) using H-D-lle-Pro-Arg-pNA-2HCl as chromogenic substrate incubated for 20 mins followed by substrate addition by spectrophotometric analysis
Tissue-type plasminogen activator, sequence (P00750 whole entry): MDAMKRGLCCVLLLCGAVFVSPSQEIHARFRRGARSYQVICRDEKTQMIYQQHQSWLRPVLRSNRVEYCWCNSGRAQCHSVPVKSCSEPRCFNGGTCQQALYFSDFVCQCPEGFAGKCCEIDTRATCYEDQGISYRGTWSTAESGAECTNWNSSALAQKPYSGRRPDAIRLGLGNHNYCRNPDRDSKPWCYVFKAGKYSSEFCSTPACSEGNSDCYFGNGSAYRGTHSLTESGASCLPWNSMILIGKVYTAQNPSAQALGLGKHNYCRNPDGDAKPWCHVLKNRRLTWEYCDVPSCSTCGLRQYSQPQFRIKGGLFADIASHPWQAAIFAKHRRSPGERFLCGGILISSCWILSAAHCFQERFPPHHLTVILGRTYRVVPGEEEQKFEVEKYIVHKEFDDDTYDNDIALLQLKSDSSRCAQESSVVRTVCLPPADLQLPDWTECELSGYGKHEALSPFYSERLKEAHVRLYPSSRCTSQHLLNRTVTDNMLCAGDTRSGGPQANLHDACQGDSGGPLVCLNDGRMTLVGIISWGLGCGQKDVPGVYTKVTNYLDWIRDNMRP

[6] = Selectivity index, ratio of IC50 for FXIa (unknown origin) to IC50 for FXIIa (unknown origin)
Chymotrypsin = Chymotrypsin (Homo sapiens, UniProt Q99895+P17538+P40313+Q6GPI1); assay: Inhibition of Chymotrypsin (unknown origin) using N-Suc-Ala-Ala-Pro-Phe-pNA as chromogenic substrate incubated for 20 mins followed by substrate addition by spectrophotometric analysis; format: protein assay
[7] = Selectivity index, ratio of IC50 for PKal (unknown origin) to IC50 for FXIIa (unknown origin)
RAW264.7 [8] = assay: Antiinflammatory activity in mouse RAW264.7 cells assessed as inhibition of LPS-induced IL-1 beta expression at 10 uM preincubated for 12 hrs followed by LPS stimulation and measured after 12 hrs by real time quantitative RT-PCR assay; format: functional, cell-based; conditions: time 24.0 hrs
Plasma kallikrein = Plasma kallikrein (Homo sapiens, UniProt P03952); assay: Inhibition of PKal (unknown origin) using H-D-Pro-Phe-Arg-pNA-2HCl as substrate incubated for 20 mins followed by substrate addition by spectrophotometric analysis
Plasma kallikrein, sequence (P03952 20-390 limits assumed): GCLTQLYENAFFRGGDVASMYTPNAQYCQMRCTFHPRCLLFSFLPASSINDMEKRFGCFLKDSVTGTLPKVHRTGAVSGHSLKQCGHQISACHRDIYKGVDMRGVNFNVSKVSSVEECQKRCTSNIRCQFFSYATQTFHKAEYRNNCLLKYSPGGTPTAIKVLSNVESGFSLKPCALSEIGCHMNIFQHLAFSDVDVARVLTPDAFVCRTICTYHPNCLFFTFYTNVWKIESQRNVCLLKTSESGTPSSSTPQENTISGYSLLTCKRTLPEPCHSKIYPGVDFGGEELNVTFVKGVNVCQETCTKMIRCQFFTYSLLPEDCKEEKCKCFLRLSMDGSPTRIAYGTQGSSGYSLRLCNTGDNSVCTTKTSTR
Plasma kallikrein, sequence (P03952 391-638 limits assumed): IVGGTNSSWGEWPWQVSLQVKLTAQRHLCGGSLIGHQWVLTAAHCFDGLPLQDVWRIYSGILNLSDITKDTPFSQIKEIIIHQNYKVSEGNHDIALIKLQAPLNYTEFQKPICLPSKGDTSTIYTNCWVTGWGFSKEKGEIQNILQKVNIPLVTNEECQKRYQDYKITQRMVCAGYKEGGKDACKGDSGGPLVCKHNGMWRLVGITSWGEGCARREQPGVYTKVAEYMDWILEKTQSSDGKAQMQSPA

[9] = Selectivity index, ratio of IC50 for chymotrypsin (unknown origin) to IC50 for FXIIa (unknown origin)
Trypsin = Trypsin (Homo sapiens, UniProt P07477+P07478+P35030); assay: Inhibition of trypsin (unknown origin) using Bz-lle-Glu(gamma-OR)-Gly-Arg-pNA.HCl as chromogenic substrate incubated for 20 mins followed by substrate addition by spectrophotometric analysis; format: protein assay
[10] = Selectivity index, ratio of IC50 for thrombin (unknown origin) to IC50 for FXIIa (unknown origin)
Coagulation factor XI = Coagulation factor XI (Homo sapiens, UniProt P03951); assay: Inhibition of FXIa (unknown origin) using p-Glu-Pro-Arg-pNA.HCl as chromogenic substrate incubated for 20 mins followed by substrate addition by spectrophotometric analysis
Coagulation factor XI, sequence (P03951 19-387 limits assumed): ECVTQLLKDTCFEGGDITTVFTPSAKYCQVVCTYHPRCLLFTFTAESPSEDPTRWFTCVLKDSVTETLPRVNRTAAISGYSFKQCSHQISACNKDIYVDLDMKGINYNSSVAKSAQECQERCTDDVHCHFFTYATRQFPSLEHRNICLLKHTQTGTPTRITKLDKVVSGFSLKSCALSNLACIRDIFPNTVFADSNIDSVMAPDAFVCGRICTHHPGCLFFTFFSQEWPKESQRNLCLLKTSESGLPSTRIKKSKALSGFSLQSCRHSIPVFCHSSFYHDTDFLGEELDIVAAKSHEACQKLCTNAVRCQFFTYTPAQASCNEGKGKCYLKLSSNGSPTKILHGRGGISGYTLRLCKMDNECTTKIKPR
Coagulation factor XI, sequence (P03951 388-625 limits assumed): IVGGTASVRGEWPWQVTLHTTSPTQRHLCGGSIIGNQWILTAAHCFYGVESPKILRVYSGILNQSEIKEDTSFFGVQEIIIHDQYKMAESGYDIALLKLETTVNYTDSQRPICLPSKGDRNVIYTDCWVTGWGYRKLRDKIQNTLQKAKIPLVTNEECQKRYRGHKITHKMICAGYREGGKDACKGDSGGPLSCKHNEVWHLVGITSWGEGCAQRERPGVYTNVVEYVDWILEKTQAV

[11] = Selectivity index, ratio of IC50 for trypsin (unknown origin) to IC50 for FXIIa (unknown origin)
RAW264.7 [12] = assay: Antiinflammatory activity in mouse RAW264.7 cells assessed as inhibition of LPS-induced IL-6 expression at 10 uM preincubated for 12 hrs followed by LPS stimulation and measured after 12 hrs by real time quantitative RT-PCR assay; format: functional, cell-based; conditions: time 24.0 hrs
Plasma [13] = assay: Anticoagulant activity in human plasma assessed as prolongation of activated partial thromboplastin time at 300 uM incubated for 2 mins by aPTT reagent based assay relative to control; format: functional
[14] = Selectivity index, ratio of IC50 for FXa (unknown origin) to IC50 for FXIIa (unknown origin)
[15] = Selectivity index, ratio of IC50 for tPA (unknown origin) to IC50 for FXIIa (unknown origin)
[16] = Toxicity in BALB/c mouse assessed as prolongation of bleeding time at 30 mg/kg, po measured after 90 mins; format: organism-based; conditions: in vivo, 1.5 h
Coagulation factor XII [17] = molecular target: T2, Coagulation factor XII; assay: Inhibition of human FXIIa (unknown origin)

Structure (SMILES)	inhibition [1] [%]	IC50 (Coagulation factor XII [2]) [nM]	other results
CN1CCN(c2ccc(C(=O)n3nc(-c4ccncc4)nc3N)cc2)CC1	71	195	
CN1CCN(c2ccc(C(=O)n3nc(-c4ccccn4)nc3N)cc2)CC1	72	180	
Nc1nc(-c2ccccn2)nn1C(=O)c1ccc(N2CCN(C3COC3)CC2)c2ccccc12		39	IC50 (Prothrombin): 20000 nM; IC50 (Plasminogen): > 25000 nM; Ratio IC50 [3]: > 640; Activity (Plasma [4]): inactive; IC50 (Coagulation factor X): > 25000 nM; IC50 [5]: > 25000 nM; Ratio IC50 [6]: > 640; IC50 (Chymotrypsin): > 25000 nM; Ratio IC50 [7]: > 640; Activity (RAW264.7 [8]): Active; IC50 (Plasma kallikrein): > 25000 nM; Ratio IC50 [9]: > 640; IC50 (Trypsin): > 25000 nM; Ratio IC50 [10]: 830; IC50 (Coagulation factor XI): > 25000 nM; Ratio IC50 [11]: > 640; Activity (RAW264.7 [12]): Active; Activity (Plasma [13]): 472%; Ratio IC50 [14]: > 640; Ratio IC50 [15]: > 640
COCCN1CCN(c2ccc(C(=O)n3nc(-c4ccccn4)nc3N)cc2)CC1	65		
CC(C)N1CCN(c2ccc(C(=O)n3nc(-c4ccccn4)nc3N)c3c2OCCO3)CC1		51	
Nc1nc(-c2ccccn2)nn1C(=O)c1ccc(NC(=O)c2ccccc2)cc1	74	163	IC50 (Prothrombin): 15700 nM; IC50 (Plasminogen): > 5000 nM; Ratio IC50 [3]: > 30; IC50 [5]: > 5000 nM; Ratio IC50 [6]: > 150; IC50 (Chymotrypsin): > 5000 nM; Ratio IC50 [7]: > 150; IC50 (Plasma kallikrein): > 25000 nM; Ratio IC50 [9]: > 30; IC50 (Trypsin): > 5000 nM; Ratio IC50 [10]: 770; IC50 (Coagulation factor XI): > 25000 nM; Ratio IC50 [11]: > 30; Activity (Plasma [13]): 35%; Ratio IC50 [14]: > 30; Ratio IC50 [15]: > 30
CN1CCN(c2cccc(C(=O)n3nc(-c4ccccn4)nc3N)c2)CC1	21		
Nc1nc(-c2ccccn2)nn1C(=O)c1ccc(NC(=O)c2ccccc2)c(F)c1	9		
Nc1nc(-c2ccccn2)nn1C(=O)c1ccc(NC(=O)c2cccc3c2OCCO3)cc1	62		
CN(C)C(=O)N1CCN(c2ccc(C(=O)n3nc(-c4ccccn4)nc3N)c3ccccc23)CC1		86	
Nc1nc(-c2ccccn2)nn1C(=O)c1ccc(NC(=O)c2cccc3c2CCCC3)cc1	62		
Nc1nc(-c2ccccn2)nn1C(=O)c1cccc(N2CCC3(CC2)OCCO3)c1	40		
Nc1nc(-c2ccccn2)nn1C(=O)c1ccc(NC(=O)[C@@H](Cc2ccccc2)NC2CCCCC2)cc1	24		
Nc1nc(-c2ccccn2)nn1C(=O)c1ccc(N2CCN(C3CCCCC3)CC2)c2ccccc12		56	
O=C(NC[C@H]1CN(c2ccc(N3CCOCC3=O)cc2)C(=O)O1)c1ccc(Cl)s1 [RIVAROXABAN]			Activity [16]: Toxic
Cc1cc(C(=O)n2nc(-c3ccccn3)nc2N)ccc1N1CCN(C(C)C)CC1	82	48	Activity (RAW264.7 [8]): Active; Activity (RAW264.7 [12]): Active
Cc1cc(C(=O)n2nc(-c3ccccn3)nc2N)cc(C)c1N1CCN(C(C)C)CC1	28		
CN(C)CCN(C)c1ccc(C(=O)n2nc(-c3ccccn3)nc2N)cc1	72	190	
CC(C)N1CCN(c2ccc(C(=O)n3nc(-c4ccc(F)cn4)nc3N)cc2)CC1	79	79	Activity (RAW264.7 [8]): Active; Activity (RAW264.7 [12]): Active

Structure (SMILES)	inhibition [1] [%]	IC50 (Coagulation factor XII [2]) [nM]	other results
Nc1nc(-c2ccccn2)nn1C(=O)c1ccc(NCc2ccccc2)cc1	39		
Nc1nc(-c2ccccn2)nn1C(=O)c1ccc(NC(=O)c2cccc3ccccc23)cc1	60		
CC(C)S(=O)(=O)N1CCN(c2ccc(C(=O)n3nc(-c4ccccn4)nc3N)c3ccccc23)CC1		95	
Nc1nc(-c2ccccn2)nn1C(=O)c1ccc(N2CCN(CCO)CC2)cc1	63		
Nc1nc(-c2ccccn2)nn1C(=O)c1ccc(N2CCN(C3CC3)CC2)c2ccccc12		40	
CN1CCC(c2ccc(C(=O)n3nc(-c4ccccn4)nc3N)cc2)CC1	34		
Cc1cc(N2CCn3c(nnc3C(F)(F)F)[C@@H]2C)ncc1CNc1cccc2c(N)nccc12			IC50 (Coagulation factor XII [17]): 10 nM
Nc1nc(-c2ccccn2)nn1C(=O)c1ccc(N2CCN(C3CCCC3)CC2)c2ccccc12		50	
CN1CC=C(c2ccc(C(=O)n3nc(-c4ccccn4)nc3N)cc2)CC1	40		
Nc1nc(-c2ccccn2)nn1C(=O)c1ccc(N2CCC3(CC2)CC3)cc1	21		
CC(C)C[C@@H](NC1CCCC1)C(=O)Nc1ccc(C(=O)n2nc(-c3ccccn3)nc2N)cc1	28		
CN1CCN(c2ccc(C(=O)n3nc(-c4cccnc4)nc3N)cc2)CC1	57		
COc1cc(C(=O)n2nc(-c3ccccn3)nc2N)ccc1N1CCN(C(C)C)CC1	43		
Nc1nccc2c(NCC34COC(COc5ccn6ccnc6c5)(C3)C4)cccc12			IC50 (Coagulation factor XII [17]): 100 nM
Nc1nc(-c2ccccn2)nn1C(=O)c1ccc(NC(=O)c2ccccc2)cc1F	28		
CC(C)N1CCN(c2ccc(C(=O)n3nc(-c4ccccn4)nc3N)cc2)CC1	79	72	
Nc1nc(-c2ccccn2)nn1C(=O)c1ccc(NC(=O)[C@@H](CC2CCCCC2)NC2CCCCC2)cc1	33		
CC(C)N1CCN(c2ccc(C(=O)n3nc(-c4ccc(Cl)cn4)nc3N)cc2)CC1	77	81	
Nc1nc(-c2ccccn2)nn1C(=O)c1ccc(N2CCC3(CC2)OCCO3)cc1	70	202	
